From patent US7345091B2, “Carotenoid ether analogs or derivatives for the inhibition and amelioration of disease” (Cardax Pharmaceuticals, Inc., priority 2002, dated 2008) come the findings set out here.

Like-named read-outs stand apart in the source and are kept apart here.

Series [1] deals with human serum albumin (HSA) (Homo sapiens, UniProt P02768).
Description: For spectroscopic sample preparation, HSA was dissolved in pH 7.4 Ringer or 0.1 M pH 7.4 phosphate buffer solutions. Albumin concentration was calculated with the value of E1cm^1%=5.31, using experimentally obtained absorbance data at 279 nm. The molecular weight of HSA was defined as 66500 Da.
CD and UV spectra were recorded on a Jasco J-715 spectropolarimeter at 25±0.2 and 37±0.2° C. in a rectangular cuvette with 1 cm pathlength. Temperature control was provided by a Peltier thermostat equipped with magnetic stirring. All spectra were accumulated three times with a bandwidth of 1.0 nm and a resolution of 0.5 nm at a scan speed of 100 nm/min. Induced CD was defined as the CD of the dAST XVI-HSA mixture minus the CD of HSA alone at the same wavelengths, and is expressed as ellipticity in millidegrees (mdeg).
Ringer buffer, I/P values from 0.007 to 0.10: 2 mL of 1.6×10^−4 M HSA solution was placed in the cuvette with 1 cm optical pathlength and small amounts of the ligand stock solution (c=2.2×10^−4) were added with an automatic pipette in 10 μL aliquots. Ringer buffer, L/P values from 0.82 to 13.13: 2 ml of 2.3×10^−6 M HSA solution was placed in the cuvette with 1 cm optical pathlength and μL volumes of the ligand stock solution (c=3.9×10^−4) were added with an automatic pipette. Phosphate buffer, L/P values from 0.82 to 13.10: 2 mL of 2.2×10^−6 M HSA solution was placed in the cuvette with 1 cm optical pathlength and μL volumes of the ligand stock solution (c=3.6×10^−4) were added with an automatic pipette.
2 mL of 4.2×10^−6 M HSA solution was prepared in a 1 cm rectangular cell in 0.1 M pH 7.4 phosphate buffer. […] Total fluorescence intensity was collected at each wavelength with a Hamamatsu H5784-type photomultiplier detector mounted on a right angle to the light source. […] A control experiment was also performed, in which the fluorescence of HSA during addition of 20, 50 and 100 μL DMSO to the solution was measured.
A further series concerns Cx43 protein. Briefly: Cx43 protein expression by stereoisomer forms (immuno-(Western) blotting, 4 days). The format is cell-based, mouse. The conditions noted are these: 1×10^-5 M in 1:2 ethanol/H2O, four days; vs 1:2 ethanol/H2O alone. As for the experimental part: (2) Molecular Studies. […] Briefly, mouse embryonic fibroblast C3H10T1/2 cells were cultured in Eagle's basal medium with Earle's salts (Atlanta Biologicals, Atlanta, Ga.), supplemented with 5% fetal calf serum (Atlanta Biologicals, Atlanta, Ga.) and 25 μg/mL gentamicin sulfate (Sigma, St. Louis, Mo.), and incubated at 37° C. in 5% CO2. On the 7th day after seeding in 100 millimeter (mm) dishes, the confluent cells were treated for four days with the disodium salt disuccinate astaxanthin derivatives XVI and then harvested and analyzed for Cx43 protein induction as described. Protein content was measured using the Protein Assay Reagent kit (Pierce Chemical Co., Rockford, Ill.) according to manufacturer's instructions. Cell lysates containing 100 μg of protein were analyzed by Western blotting using the NuPage western blotting kit and apparatus (Invitrogen, Carlsbad, Calif.) and Cx43 protein detected using a rabbit polyclonal antibody (Zymed, San Francisco, Calif.) raised against a synthetic polypeptide corresponding to the C-terminal domain of mouse, human and rat Cx43. Cx43 immunoreactive bands were visualized by chemiluminescence using an anti-rabbit HRP-conjugated secondary antibody (Pierce Chemical Co., Rockford, Ill.). Digital images were obtained with a cooled CCD camera, and quantitative densitometry was then performed (Bio-Rad, Richmond, Calif.).

Another series has as its system superoxide anion. Briefly: Superoxide anion scavenging by EPR (DEPMPO spin trap) in phorbol ester-stimulated isolated neutrophils. The format is cell-based, human. The conditions noted are these: for Mean (% inhibition) of superoxide anion signal: 0.1 mM; for reduction of superoxide anion signal: aqueous. As for the experimental part: In an experiment, neutrophils were isolated on a Percoll gradient from whole blood from a human volunteer. The isolated neutrophils were then re-suspended in phosphate-buffered saline, and maximally stimulated with phorbol ester to induce the respiratory burst and production of superoxide anion. To the solution of activated human neutrophils, the disodium salt disuccinate astaxanthin derivative XVI was added at various concentrations, and the superoxide signal [as measured with electron paramagnetic resonance (EPR) spectroscopy] was subsequently measured. […] The disodium salt disuccinate astaxanthin derivative XVI tested at 100 μM scavenged 28% of the total signal. At 3 mM, almost no superoxide signal remained. […] In addition to reducing the superoxide anion signal important in ischemia-reperfusion injury, it is also likely that myocardial salvage can be achieved with the described carotenoid derivative, as superoxide anion plays a major role in tissue injury and death during prolonged myocardial ischemia. In a third experiment, neutrophils were again isolated on a Percoll gradient from whole blood from a second human volunteer. The isolated neutrophils were then re-suspended in phosphate-buffered saline, and maximally stimulated with phorbol ester to induce the respiratory burst and production of superoxide anion. […] Astaxanthin 2E was dissolved in HPLC grade dimethylsulfoxide (DMSO; Sigma-Aldrich, St. Louis, Mo.). The disodium disuccinate derivatives XVI of astaxanthin 2E were tested separately in […] formulations: statistical mixture of stereoisomers (as for astaxanthin, above, a 1:2:1 mixture of all-E; labeled as “mixture” in all tables and figures); 3S,3'S, and 3R,3'R (optical isomers or enantiomers); and meso (mixture of identical 3S,3'R and 3'S,3R; diastereomers of the enantiomeric pair). […] The disuccinate derivatives were first tested at the appropriate final concentrations in pure aqueous solution (deionized water) from stock solutions of 10 mM. Each of the four disuccinate derivatives were then tested from stock solutions prepared in a 1:2 mixture of ethanol (final concentration of EtOH in stock solution 331⁄3%; final concentration in isolated neutrophil assay 0.3%; HPLC grade ethanol, Sigma-Aldrich, St. Louis, Mo.) at 10 mM. […] Metaphore® Pharmaceuticals, Inc., St. Louis, Mo.) were also performed. Human polymorphonuclear leukocytes (PMNs) were isolated from freshly sampled venous blood of a single volunteer by Percoll density gradient centrifugation, which yielded PMNs with a purity of >95%. Each 10 mL of whole blood was mixed with 0.8 mL of 0.1 M EDTA and 25 mL of saline. The diluted blood was layered over 9 mL of Percoll at a specific density of 1.080 g/mL. After centrifugation at 400×g for 20 min at 20° C., the plasma, mononuclear cell, and Percoll layers were removed. Erythrocytes were lysed by addition of 18 mL of ice-cold water for 30 s, followed by 2 mL of 10× PIPES buffer (25 mM PIPES, 110 mM NaCl, and 5 mM KCl, titrated to pH 7.4 with NaOH). Cells were pelleted at 4° C., the supernatant was decanted, and the procedure was repeated. After the second hypotonic lysis, cells were washed twice with PAG buffer (PIPES buffer containing 0.003% human serum albumin and 0.1% glucose). Afterward, PMNs were counted by light microscopy on a hemocytometer. The final pellet was then suspended in PAG-CM buffer (PAG buffer with 1 mM CaCl2 and 1 mM MgCl2). All EPR measurements were performed using a Bruker ER 300 EPR spectrometer operating at X-band with a TM110 cavity. The microwave frequency was measured with a Model 575 microwave counter (EIP Microwave, Inc., San Jose, Calif.). To measure O^ -2 generation from phorbol-ester (PMA)-stimulated PMNs, EPR spin-trapping studies were performed using DEPMPO (Oxis, Portland, Oreg.) at 10 mM. 1×10^6 PMNs were stimulated with PMA (1 ng/mL) and loaded into capillary tubes for EPR measurements. […]

A short description of series [2]: Determination of water solubility. It is filed as physicochemical. As for the experimental part:
A total of 30 mg of sample (disodium disuccinate astaxanthin derivative, as the all-trans mixture of stereoisomers 3S,3′S, meso, and 3R,3′R in a 1:2:1 ratio) was added to 2 mL of sterile-filtered ([…] Millipore®) deionized (DI) water in a 15 mL glass centrifuge tube. The tube was wrapped in aluminum foil and the mixture was shaken for 2 hours, then centrifuged at 3500 rpm for 10 minutes. The aqueous solution was filtered through a 0.45 micron PVDF disposable filter device. A 1 mL volume of filtrate was then diluted appropriately with DI water, and the concentration of the solution was measured at 480 nm using a four point calibration curve prepared from fresh sample.

For series [3] the following is noted: for behavior as radical quencher compared with non-esterified, free astaxanthin: formation of carotenoid radical cation. The text has this:
FIG. 27 and FIG. 28 depict the results of spectral analysis after flash photolysis of the formation of triplet and carotenoid cation radical states for non-esterified, free astaxanthin 2E and the diacid disuccinate astaxanthin derivative XV were obtained. Formation of the carotenoid cation radical is a measure of the potential biophysical behavior of the novel derivative as an antioxidant. If a derivative retains the antioxidant behavior of non-esterified, free astaxanthin, then all previously documented (i.e. literature precedent) therapeutic applications for astaxanthin can be reasonably assumed for the novel derivative, including at least singlet oxygen quenching, lipid peroxidation chain-breaking, and/or direct radical scavenging.
In this experiment, nitronaftalin (NN) was used as the photosensitizer. After irradiation, the excited sensitizer (NN*) forms a sensitizer triplet (^3NN). When ^3NN encounters a carotenoid, energy and electron transfer reactions with ^3NN take place. The resulting relatively stable ^3car and carotenoid cation radicals (car*^+) are detected by characteristic absorption bands. Non-polar solvents (e.g. hexane) favor the formation of ^3car, and more polar solvents (alcohols, water) favor the formation of the car.^+. The anion radical of the sensitizer (NN.^−) is not typically seen because of a low absorption coefficient.
The ^3car decays rather quickly. After 15 μs, half of the ^3car has disappeared, and after 50 μs, no ^3car is left.
The spectrum of asta 2E is nearly identical to that of astaCOOH XV. After 50 μs, the ^3car has disappeared. During this time frame, the car.^+ is stable. Negative and positive peaks in the absorption spectra for astaCOOH XV and asta 2E are superimposable.

human serum albumin (HSA), sequence (P02768 25-609): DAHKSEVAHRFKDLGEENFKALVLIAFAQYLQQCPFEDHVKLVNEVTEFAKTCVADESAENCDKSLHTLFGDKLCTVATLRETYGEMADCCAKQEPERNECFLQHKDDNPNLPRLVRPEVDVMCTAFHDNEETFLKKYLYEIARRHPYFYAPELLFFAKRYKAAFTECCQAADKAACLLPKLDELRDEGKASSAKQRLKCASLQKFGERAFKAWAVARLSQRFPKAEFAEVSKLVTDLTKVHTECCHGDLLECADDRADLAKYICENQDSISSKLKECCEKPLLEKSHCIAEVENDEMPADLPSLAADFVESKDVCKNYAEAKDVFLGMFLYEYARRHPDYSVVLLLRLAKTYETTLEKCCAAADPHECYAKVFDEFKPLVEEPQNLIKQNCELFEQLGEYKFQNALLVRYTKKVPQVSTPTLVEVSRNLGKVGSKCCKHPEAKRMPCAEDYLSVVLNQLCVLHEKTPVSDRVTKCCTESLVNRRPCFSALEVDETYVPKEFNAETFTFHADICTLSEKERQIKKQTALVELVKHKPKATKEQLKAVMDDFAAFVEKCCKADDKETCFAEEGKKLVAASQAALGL

Regarding `CC1=C(/C=C/C(C)=C/C=C/C(C)=C/C=C/C=C(C)/C=C/C=C(C)/C=C/C2=C(C)C(=O)[C@H](OC(=O)CCC(=O)[O-])CC2(C)C)C(C)(C)C[C@H](OC(=O)CCC(=O)[O-])C1=O.[Na+].[Na+]` [Meso, disodium salt disuccinate derivative XVI (dAST) of synthetic meso-astaxanthin (3R,3′S-dihydroxy-β,β-carotene-4,4′-dione)], the “quenching of the intrinsic fluorescence of HSA” value in series [1] (0.1 M pH 7.4 phosphate buffer, 37° C.) is on record as “able to effectively quench the intrinsic fluorescence of HSA”. In series [1] (L/P ratio of 0.7, 0.1 M pH 7.4 phosphate buffer, 37° C.), the “decrease of baseline fluorescence intensity of HSA” value turned out to be 50%. For the same compound, the “mode of binding to HSA” value in series [1] (low ligand/protein molar ratios, pH 7.4 Ringer buffer) is listed as “monomeric form”. Also, the “expression of Cx43 protein” value with Cx43 protein is “increase expression of Cx43 protein”. In addition, the “Mean (% inhibition) of superoxide anion signal” value with superoxide anion (Solvent EtOH (1:2 EtOH/water stock, 0.3% final)) is listed as 42.5%; in the series with superoxide anion (Solvent Water), 15.7%.
With `CC(C=CC=C(C)C=CC1=C(C)C(=O)C(OC(=O)CCC(=O)OCC(O)C2OC(=O)C(O)=C2O)CC1(C)C)=CC=CC=C(C)C=CC=C(C)C=CC1=C(C)C(=O)C(OC(=O)CCC(=O)OCC(O)C2OC(=O)C(O)=C2O)CC1(C)C` (stereo not drawn) [XXIII, Succinic acid 4-[18-(4-{3-[2-(3,4-dihydroxy-5-oxo-2,5-dihydrofuran-2-yl)-2-hydroxy-ethoxycarbonyl]-propionyloxy}-2,6,6-trimethyl-2-oxo-cyclohex-1-enyl)-3,7,12,16-tetramethyl-octadeca-1,3,5,7,9,11,13,15,17-nonaenyl]-3,5,5-trimethyl-2-oxo-cyclohex-3-enyl ester 2-(3,4-dihydroxy-5-oxo-2,5-dihydrofuran-2-yl)-2-hydroxy-ethyl ester], the water solubility entry in series [2] is on record as “highly water soluble”. Further, the “increase in radical scavenging potency over the disodium disuccinate astaxanthin derivative (XVI)” value in the series on superoxide anion is reported as 50 fold. The “inhibition of superoxide anion signal” value in the series with superoxide anion (60 μM, without a co-solvent) is listed as “nearly complete inhibition”. Moreover, the “concentration at which complete suppression of the superoxide anion signal was achieved” value in the series with superoxide anion (activated human neutrophils, EPR) is 60 µM.
With `CC1=C(/C=C/C(C)=C/C=C/C(C)=C/C=C/C=C(C)/C=C/C=C(C)/C=C/C2=C(C)C(=O)C(OC(=O)CCC(=O)O)CC2(C)C)C(C)(C)CC(OC(=O)CCC(=O)O)C1=O` (stereo not drawn) [XV, Succinic Acid mono-(4-{18-[4-(3-carboxy-propionyloxy)-2,6,6-trimethyl-3-oxo-cyclohex-1-enyl]-3,7,12,16-tetramethyl-octadeca-1,3,5,7,9,11,13,15,17-nonaenyl}-3,5,5-trimethyl-2-oxo-cyclohex-3-enyl) ester], in series [3], the “stability of the carotenoid cation radical (car.+)” value is “stable within this time frame”. For the same compound, in series [3] (acetonitrile, sensitizer NN), the “time after which half of the 3car (carotenoid triplet) has disappeared” value stood at 15 μs; the “time after which no 3car (carotenoid triplet) is left” value stood at 50 μs; the “behavior as radical quencher compared with non-esterified, free astaxanthin” value is given as “behaves like asta 2E”. In addition, the “behavior as radical quencher compared with non-esterified, free astaxanthin” value in series [3] (acetonitrile, sensitizer NN, listed as astaCOOH) is “identically to non-esterified, free racemic astaxanthin”.
A word on the solubility: it is the dissolved amount per volume that the medium holds. Higher therefore signals much dissolved substance. Take `CC1=C(/C=C/C(C)=C/C=C/C(C)=C/C=C/C=C(C)/C=C/C=C(C)/C=C/C2=C(C)C(=O)C(OC(=O)C(N)CCCCN)CC2(C)C)C(C)(C)CC(OC(=O)C(N)CCCCN)C1=O.Cl.Cl.Cl` (stereo not drawn) [XX, Tetrahydrochloride Salt of the Dilysinate Ester of Astaxanthin]: the solubility at 2 h in series [2] (deionized water, water, thermodynamic from solid, pure aqueous formulation) was greater than 50 mg/mL. For the same compound, the “reduction of superoxide anion signal” value in the series on superoxide anion (1 μM) was “approximately 5%”; with superoxide anion (3 mM), 98%.
